{"source": "paper PMC3871589", "about": "“Evaluation of STAT3 Signaling in ALDH+ and ALDH+/CD44+/CD24− Subpopulations of Breast Cancer Cells” (PLoS ONE, 2013)", "key": {"[1]": {"target": "Yes (Homo sapiens, UniProt P07947)", "sequence (P07947 whole entry)": "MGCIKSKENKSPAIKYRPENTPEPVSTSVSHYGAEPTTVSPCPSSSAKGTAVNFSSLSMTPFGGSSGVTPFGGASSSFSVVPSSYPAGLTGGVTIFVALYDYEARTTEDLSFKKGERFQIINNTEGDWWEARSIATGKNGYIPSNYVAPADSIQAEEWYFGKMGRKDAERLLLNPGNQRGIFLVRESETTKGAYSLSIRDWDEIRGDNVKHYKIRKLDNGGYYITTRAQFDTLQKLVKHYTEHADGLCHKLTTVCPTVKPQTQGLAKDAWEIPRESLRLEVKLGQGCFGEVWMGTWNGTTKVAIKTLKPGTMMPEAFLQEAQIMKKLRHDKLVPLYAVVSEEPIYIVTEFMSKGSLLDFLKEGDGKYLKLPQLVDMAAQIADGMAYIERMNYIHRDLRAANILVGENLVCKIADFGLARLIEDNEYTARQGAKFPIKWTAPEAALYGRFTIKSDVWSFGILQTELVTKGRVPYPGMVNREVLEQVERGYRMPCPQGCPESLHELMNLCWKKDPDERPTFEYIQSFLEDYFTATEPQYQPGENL", "assay": "Kinase profiler assay, Yes", "type": "biochemical", "conditions": "10 concentrations, 100 µM highest; Table S3", "description": "(§1) The effects of LLL12 on twenty six purified human protein kinases were performed at the Millipore UK Limited (Dundee, UK) and Reaction Biology Corp. (Malvern, PA) using the Kinase profiler assay. Assays contained a peptide substrate, purified recombinant human protein kinases to be tested, and gamma-labeled ATP, magnesiumion. Radioactive phosphorylated product was measured and quantitated via a scintillation counter."}, "[2]": {"test_system": "ALDH+/CD44+/CD24− subpopulation of MDA-MB-231 and SUM159 breast cancer cells", "assay": "Cell viability of ALDH+/CD44+/CD24− subpopulation", "type": "cell-based, human", "conditions": "Figure 5D", "description": "The breast cancer cells were seeded in 96-well plates (3,000 cells/well) in triplicates in a serum-free mammary epithelial basal medium. The following day, cancer cells were treated with 1 to 10 µmol/L of LLL12 or Stattic for 72 hours, STAT3 ShRNA or control GFP shRNA lentivirus (CTL ShRNA) for 48 hours. MTT (Thiazolyl Blue Tetrazolium Bromide, Sigma-Aldrich) assay was used to determine the cell viability."}, "[3]": {"test_system": "STAT3-regulated genes", "assay": "RT-PCR of STAT3-regulated genes in ALDH+/CD44+/CD24− cells", "type": "cell-based, human", "conditions": "5 µM, 24 h", "description": "The ALDH^+ and ALDH^+/CD44^+/CD24^− subpopulations of breast cancer cells were treated with LLL12 (5 µM) or DMSO for 24 h. RNA from the cells was then collected using RNeasy Kits (Qiagen). cDNA was constructed from a 500 ng sample of RNA using Omniscript RT (Qiagen). Primer sequences and source information can be found in Table S1. The intensity of bands was quantified and normalized to GAPDH."}, "[4]": {"test_system": "STAT3 phosphorylation (Y705)", "assay": "Western blot of STAT3 phosphorylation in ALDH+ cells", "type": "cell-based, human", "conditions": "LLL12 5 µmol/L or Stattic 10 µmol/L 24 hours, ShRNA 48 hours then puromycin", "description": "(§2) The ALDEFLUOR kit (StemCell Technologies) was used to isolate the population with high ALDH enzymatic activity as previously described. Briefly, cells were trypsinized to single cells using 0.05% trypsin and subsequently suspended in ALDEFLUOR assay buffer containing ALDH substrate (BAAA, 1 µmol/l per 1×10^6 cells) and then incubated for 40 minutes at 37°C. For each sample, an aliquot of cells was stained under identical conditions with 15 mmol/L diethylaminobenzaldehyde (DEAB), a specific ALDH inhibitor, as an ALDH^− control. Anti-human PE-CD24 and PE-Cy5-CD44 antibody (BioLegend) were used for CD44/CD24 identification and to separate ALDH^+/CD44^+/CD24^− and ALDH^−/CD44^+/CD24^+ cells when combined with ALDH staining. Analysis was performed using a FACStarPLUS (Becton Dickinion) flow cytometer. To assess the effect of STAT3 inhibitors on the subpopulation of ALDH^+ cells, un-separated breast cancer cells were treated with 5 µmol/L of LLL12 or 10 µmol/L Stattic for 24 hours prior to performing the ALDEFLUOR assay.\n(§3) After sorting by flow cytometry, ALDH^+ and ALDH^+/CD44^+/CD24^− stem-like cells were cultured in serum-free stem cell medium in ultra-low attachment six-well plates (Corning) to maintain cancer stem cell characteristics. […]"}, "[5]": {"target": "PDK1 (Homo sapiens, UniProt O15530)", "sequence (O15530 whole entry)": "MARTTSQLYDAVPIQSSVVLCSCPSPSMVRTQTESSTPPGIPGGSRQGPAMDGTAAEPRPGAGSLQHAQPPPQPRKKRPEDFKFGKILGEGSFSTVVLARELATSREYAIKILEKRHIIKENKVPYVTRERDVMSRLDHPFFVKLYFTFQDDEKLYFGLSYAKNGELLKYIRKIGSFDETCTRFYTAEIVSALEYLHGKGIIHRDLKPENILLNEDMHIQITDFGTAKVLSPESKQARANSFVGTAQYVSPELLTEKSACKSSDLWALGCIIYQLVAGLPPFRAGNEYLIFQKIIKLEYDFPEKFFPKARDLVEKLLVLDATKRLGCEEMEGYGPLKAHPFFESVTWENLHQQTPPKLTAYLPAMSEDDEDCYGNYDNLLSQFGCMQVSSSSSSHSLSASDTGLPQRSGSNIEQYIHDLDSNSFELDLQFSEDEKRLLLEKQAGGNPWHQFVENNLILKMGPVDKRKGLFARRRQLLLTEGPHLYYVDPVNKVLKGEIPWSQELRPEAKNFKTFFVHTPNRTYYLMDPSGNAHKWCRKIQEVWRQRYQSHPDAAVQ", "assay": "Kinase profiler assay, PDK1", "type": "biochemical", "conditions": "bound stated jointly for the other protein kinases; Table S3", "description": "as §1"}, "[6]": {"test_system": "tumor tissues from breast cancer stem-like cells", "assay": "Immunohistochemistry of tumor tissues (Ki-67, cleaved caspase-3)", "type": "in vivo, NOD/SCID mice", "conditions": "5 mg/kg IP daily", "description": "Human breast cancer tissue microarray slides, comprising 95 breast cancer cases, were obtained from the Biochain Institute, Inc.. These slides were baked at 60°C for 1 hour. After deparaffinization, the slides were boiled in a pressure cooker filled with 10 mM Sodium Citrate (PH6.0), and then subjected to immunohistochemistry or immunofluorescence staining. P-STAT3 (Y705) (1∶25; Signaling Technology, Beverly, MA), ALDH1 (1∶100; BD Pharmingen, San Diego, CA), Ki-67 (1∶100; Santa Cruz Biotechnology, Santa Cruz, CA) or cleaved Caspase-3 (1∶100; Signaling Technology, Beverly, MA) antibody were used. For immunofluorescence, the slides were incubated with both primary antibodies and double-stained with Alexa Fluor® 488 conjugated anti-rabbit IgG and Alexa Fluor® 594 conjugated anti-mouse IgG (Cell Signaling Technology, Beverly, MA) overnight at 4°C. The nuclei were subsequently stained with DAPI. For immunohistochemistry, endogenous peroxidase activity was quenched by incubation in 3% hydrogen peroxide for 10 min. After blocking, the slides were incubated with primary antibody overnight at 4°C. The Histostain-Plus Kits (Invitrogen, Carlsbad, CA) were used per the manufacturer’s protocol. […] The staining intensity was scored under microscope as described elsewhere. Significance of correlation between P-STAT3 and ALDH1 was determined using two-sided Pearson Chi-square (χ^2) test."}, "[7]": {"target": "Bmx (Homo sapiens, UniProt P51813)", "sequence (P51813 whole entry)": "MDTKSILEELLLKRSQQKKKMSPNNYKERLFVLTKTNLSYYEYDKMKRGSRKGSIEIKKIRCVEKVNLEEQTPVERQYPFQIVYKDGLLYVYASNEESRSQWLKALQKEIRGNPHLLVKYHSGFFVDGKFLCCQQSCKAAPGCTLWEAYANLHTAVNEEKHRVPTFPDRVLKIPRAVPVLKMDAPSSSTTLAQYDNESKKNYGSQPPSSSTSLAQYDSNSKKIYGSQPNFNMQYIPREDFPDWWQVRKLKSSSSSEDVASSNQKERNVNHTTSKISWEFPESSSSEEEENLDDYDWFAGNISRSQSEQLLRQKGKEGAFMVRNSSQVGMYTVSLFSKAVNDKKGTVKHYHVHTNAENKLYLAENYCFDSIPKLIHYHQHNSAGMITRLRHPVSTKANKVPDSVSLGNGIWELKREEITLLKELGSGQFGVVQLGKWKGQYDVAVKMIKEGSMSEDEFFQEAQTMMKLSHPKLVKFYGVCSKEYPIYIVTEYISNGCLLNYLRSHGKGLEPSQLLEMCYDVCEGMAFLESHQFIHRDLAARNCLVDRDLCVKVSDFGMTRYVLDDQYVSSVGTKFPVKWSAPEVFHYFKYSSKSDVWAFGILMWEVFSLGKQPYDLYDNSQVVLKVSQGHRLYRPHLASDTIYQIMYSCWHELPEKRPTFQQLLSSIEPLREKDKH", "assay": "Kinase profiler assay, Bmx", "type": "biochemical", "conditions": "10 concentrations, 100 µM highest; Table S3", "description": "as §1"}, "[8]": {"target": "ErB2/HER2 (Homo sapiens, UniProt P04626)", "sequence (P04626 23-1255)": "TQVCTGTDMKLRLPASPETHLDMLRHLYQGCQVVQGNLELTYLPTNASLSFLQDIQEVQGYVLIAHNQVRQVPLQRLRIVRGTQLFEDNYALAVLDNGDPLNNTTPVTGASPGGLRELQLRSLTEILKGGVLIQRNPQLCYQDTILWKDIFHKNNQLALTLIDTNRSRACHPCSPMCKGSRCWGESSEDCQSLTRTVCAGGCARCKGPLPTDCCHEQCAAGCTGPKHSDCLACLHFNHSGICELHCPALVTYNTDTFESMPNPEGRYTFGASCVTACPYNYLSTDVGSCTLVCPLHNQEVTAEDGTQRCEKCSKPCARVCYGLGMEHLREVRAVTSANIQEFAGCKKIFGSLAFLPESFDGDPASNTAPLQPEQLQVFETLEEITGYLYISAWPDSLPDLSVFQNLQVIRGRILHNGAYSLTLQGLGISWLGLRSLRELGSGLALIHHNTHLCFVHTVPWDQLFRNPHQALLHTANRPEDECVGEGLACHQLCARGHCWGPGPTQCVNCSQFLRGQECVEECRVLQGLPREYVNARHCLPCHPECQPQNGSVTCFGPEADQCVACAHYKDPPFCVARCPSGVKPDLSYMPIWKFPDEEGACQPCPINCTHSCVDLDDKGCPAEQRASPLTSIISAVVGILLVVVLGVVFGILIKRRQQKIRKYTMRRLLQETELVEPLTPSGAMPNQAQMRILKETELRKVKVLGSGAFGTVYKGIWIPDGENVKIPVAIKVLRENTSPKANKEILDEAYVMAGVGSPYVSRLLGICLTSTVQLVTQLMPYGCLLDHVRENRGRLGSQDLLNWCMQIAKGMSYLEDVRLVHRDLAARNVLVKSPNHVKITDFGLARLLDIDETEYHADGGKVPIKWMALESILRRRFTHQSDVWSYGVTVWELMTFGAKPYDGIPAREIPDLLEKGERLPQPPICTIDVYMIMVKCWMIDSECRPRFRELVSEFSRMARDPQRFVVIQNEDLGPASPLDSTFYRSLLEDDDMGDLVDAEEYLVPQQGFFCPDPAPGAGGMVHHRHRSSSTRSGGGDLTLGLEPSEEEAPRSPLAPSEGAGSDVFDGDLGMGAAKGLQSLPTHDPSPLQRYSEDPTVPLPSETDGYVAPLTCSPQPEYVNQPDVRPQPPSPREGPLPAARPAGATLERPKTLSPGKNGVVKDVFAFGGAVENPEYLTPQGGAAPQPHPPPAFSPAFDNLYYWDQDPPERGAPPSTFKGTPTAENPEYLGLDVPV", "conditions": "read-out: IC50 on ErB2/HER2; bound stated jointly for the other protein kinases; Table S3", "description": "as §1"}, "[9]": {"test_system": "STAT3", "conditions": "cited from earlier work"}, "[10]": {"test_system": "ALDH+ subpopulation of MDA-MB-231, SUM159, and SK-BR-3 cells", "assay": "Cleaved caspase-3 in ALDH+ cells", "type": "cell-based, human", "conditions": "LLL12 5 µmol/L 24 hours, ShRNA 48 hours then puromycin", "description": "as §2, §3"}, "[11]": {"target": "AKT1 (Homo sapiens, UniProt P31749)", "sequence (P31749 whole entry)": "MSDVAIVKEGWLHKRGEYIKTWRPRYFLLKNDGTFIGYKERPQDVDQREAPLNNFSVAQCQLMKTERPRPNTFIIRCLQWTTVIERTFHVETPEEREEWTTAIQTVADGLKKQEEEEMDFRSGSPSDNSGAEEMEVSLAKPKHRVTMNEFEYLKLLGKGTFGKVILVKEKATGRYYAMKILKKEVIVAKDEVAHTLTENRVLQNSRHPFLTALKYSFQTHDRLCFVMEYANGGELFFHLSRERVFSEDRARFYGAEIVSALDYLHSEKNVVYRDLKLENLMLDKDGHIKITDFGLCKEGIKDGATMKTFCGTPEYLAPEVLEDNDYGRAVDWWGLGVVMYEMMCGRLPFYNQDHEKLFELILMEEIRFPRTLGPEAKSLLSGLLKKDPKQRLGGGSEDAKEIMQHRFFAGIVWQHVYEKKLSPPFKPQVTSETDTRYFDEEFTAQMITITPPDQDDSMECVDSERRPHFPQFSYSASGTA", "assay": "Kinase profiler assay, AKT1", "type": "biochemical", "conditions": "bound stated jointly for the other protein kinases; Table S3", "description": "as §1"}}}
{"smiles": "NS(=O)(=O)c1cccc2c1C(=O)c1cccc(O)c1C2=O", "note": "[LLL12]", "values": [{"measurement": "IC50", "setting": "[1]", "value": "> 100", "unit": "µM"}, {"measurement": "cell viability", "setting": "[2]", "value": "inhibited"}, {"measurement": "expression of Cyclin D1, survivin, Bcl-2, Bcl-XL and Notch1", "setting": "[3]", "value": "down-regulated"}, {"measurement": "STAT3 phosphorylation in ALDH+ cells", "setting": "[4]", "value": "inhibited"}, {"measurement": "IC50", "setting": "[5]", "value": "≥ 77.9", "unit": "µM"}, {"measurement": "number of Ki-67 positive cells", "setting": "[6]", "value": "decreased"}, {"measurement": "number of cleaved caspase-3 positive cells", "setting": "[6]", "value": "increased"}, {"measurement": "IC50", "setting": "[7]", "value": "> 100", "unit": "µM"}, {"measurement": "IC50", "setting": "[8]", "value": "≥ 77.9", "unit": "µM"}, {"measurement": "STAT3 DNA binding activity", "setting": "[9]", "value": "inhibited"}, {"measurement": "cleaved caspase-3 in ALDH+ cells", "setting": "[10]", "value": "induced cleaved caspase-3"}, {"measurement": "IC50", "setting": "[11]", "value": "≥ 77.9", "unit": "µM"}]}
